Assay results reported in US12370352B2, “Nasal and ophthalmic delivery of aqueous corticosteroid solutions” (CyDex Pharmaceuticals, Inc., priority 2007, dated 2025).

Assays:
[1] = 72 h
[2] = assay type: binding
Source text: (§1) The equilibrium binding constant of the corticosteroid can change when a second active agent is present in a composition of the invention. Since azelastine hydrochloride (AZ-HCl) has an approximately 10-fold higher binding constant for SBE-β-CD than does budesonide (BUD), the amount of SBE-β-CD present in an aqueous composition of the three needs to be sufficient to solubilize both drugs. Example 19 details a procedure for determination of the phase solubility of budesonide in the presence of varying amounts of azelastine. The results are depicted in FIGS. 11A (for SBE-β-CD) and 11B (for SBE-β-CD and SBE-γ-CD). […] FIG. 11B is a chart of the phase solubility of BUD as a function of SBE-β-CD or SBE-γ-CD concentration in solution using various different concentrations of AZ-HCl (1.00-2.75 mg.mL). […] Thus, increasing the amount of AZ-HCl in the solution decreases the overall solubility of BUD. […] Therefore, it is advantageous to prepare solution compositions of these combinations using SBE-γ-CD due to the efficiency of interaction so as to require less of one SAExCD versus another different SAEyCD to solubilize similar amounts of actives in the presence of each other.

[3] = pH and temperature stability of azelastine with and without CAPTISOL (Example 16); assay type: physicochemical; conditions: sixteen weeks, 25, 40, 60° C., pH 4, 5, 6
Source text: SAE-CD is also capable of stabilizing a second active agent included in the composition. Example 16 details a procedure for evaluating the stability of azelastine in the presence of SAE-CD at varying temperatures and in solutions of different pH's. The results are depicted in FIGS. 10A to 10C. The SAE-CD stabilized the azelastine for the period of sixteen weeks regardless of the temperature or pH of the solution. The lower the temperature, the greater the stabilization.
The pH and temperature stability of an aqueous liquid composition comprising SAE-CD, azelastine, and buffer were determined as follows.
Stock citrate solutions (sodium citrate (3 mM) and citric acid solution (3 mM); 500 mL each) were prepared. The citrate solutions were combined and titrated to prepare stock buffered solutions (at least 150 mL each) having a pH of 4, 5, or 6. A stock solution of azelastine hydrochloride (5 mg/mL) in water was prepared. Assay solutions comprising CAPTISOL, azelastine and buffer were prepared by mixing CAPTISOL (1.4 g) and stock solution of azelastine (7.5 mL) in stock buffered solution (QS to final volume of 75 mL for each different pH). Assay solutions comprising azelastine and buffer were prepared by mixing stock solution of azelastine (7.5 mL) and stock buffered solution (67.5 mL, or QS to final volume of 75 mL). […]

[4] = assay type: binding; remark: listed apart in the source
Method: A composition of the invention can comprise SAE-CD, corticosteroid, aqueous liquid carrier, and an antihistamine. In some embodiments, the composition contains SAE-CD, budesonide, water (or aqueous buffer) and azelastine. Example 14 details the preparation of such a composition. Other solutions of azelastine in buffer with varying amounts of SAE-CD, in the absence of budesonide, were prepared and scanned by UV Spectrometer. The change in absorption as a function of SAE-CD concentration was plotted and used to determine the equilibrium binding constant of azelastine with SAE-CD, according to the Benesi-Hildebrand equation. […] The binding constant for budesonide under similar conditions was determined to be about 1000; therefore, azelastine will compete with budesonide, or another corticosteroid, for binding to SAE-CD. Accordingly, the amount of SAE-CD present can be increased to permit complete dissolution of both drugs.
as §1

Structure (SMILES) | Steroid solubility (intrinsic) [1] [µM] | Equilibrium complex stability constant with SBE-γ-CD [2] [M⁻¹] | Stability in the presence of SAE-CD [3] | Equilibrium complex stability constant with SBE-β-CD [4] [M⁻¹] | Equilibrium complex stability constant with SBE-β-CD relative to SBE-γ-CD [4] | Equilibrium binding constant with CAPTISOL ([4]; pH 4.5)
C[C@@H]1C[C@H]2[C@@H]3CCC4=CC(=O)C=C[C@]4(C)[C@@]3(Cl)[C@@H](O)C[C@]2(C)[C@@]1(O)C(=O)CCl [Mometasone, mometasone] | 0 |  |  |  |  | 
CN1CCCC(n2nc(Cc3ccc(Cl)cc3)c3ccccc3c2=O)CC1 (stereo not drawn) [azelastine, 4-[(4-chlorophenyl)methyl]-2-(1-methylazepan-4-yl)-phthalazin-1-one] |  | 2200 | stabilized | ~10000 | about 5 times | approximately 10,000
